Experimental data taken from the CheMixHub viscosity set.
Values joined by “and” are separate entries in the source; they are usually repeats but may differ in a detail not shown here. Equal entries are not always repeated. ± gives the uncertainty stated by the source.

Assay: xn = mol fraction of the nth substance listed

O=[N+]([O-])[O-].O=[N+]([O-])[O-].O=[N+]([O-])[O-].[Nd+3] + O
viscosity [mPa·s], 101.3 kPa
Conditions	x1 = 0.009316	x1 = 0.01807	x1 = 0.02726	x1 = 0.03634	x1 = 0.05266	x1 = 0.06916	x1 = 0.07185
293.15 K	1.299 ± 0.0097	1.721 ± 0.015	2.369 ± 0.021	3.383 ± 0.037	6.774 ± 0.11	14.9 ± 0.13	17.16 ± 0.15
298.15 K	1.159 ± 0.0085	1.53 ± 0.011	2.106 ± 0.016	2.967 ± 0.023	5.8 ± 0.05	12.34 ± 0.11	14.09 ± 0.12
308.15 K	0.9433 ± 0.0074	1.242 ± 0.0091	1.696 ± 0.013	2.353 ± 0.017	4.38 ± 0.03	8.715 ± 0.088	9.848 ± 0.1

[Cl-].[Na+] + O
Conditions	viscosity
293.15 K, 101.3 kPa, x1 = 0.02	1.079 ± 0.038 mPa·s
293.15 K, 101.3 kPa, x1 = 0.03479	1.188 ± 0.042 mPa·s
295.95 K, 100 kPa, x1 = 0.045	1.205 ± 0.0052 mPa·s
296.05 K, 100 kPa, x1 = 0.006	0.95 ± 0.08 mPa·s
296.17 K, 100 kPa, x1 = 0.06928	1.448 ± 0.0085 mPa·s
296.24 K, 100 kPa, x1 = 0.06928	1.444 ± 0.0085 mPa·s
296.26 K, 100 kPa, x1 = 0.06928	1.444 ± 0.0084 mPa·s
296.5 K, 100 kPa, x1 = 0.045	1.192 ± 0.0052 mPa·s
296.51 K, 100 kPa, x1 = 0.045	1.191 ± 0.0052 mPa·s
296.65 K, 100 kPa, x1 = 0.008493	0.958 ± 0.0081 mPa·s and 0.96 ± 0.0081 mPa·s
296.77 K, 100 kPa, x1 = 0.06928	1.427 ± 0.0082 mPa·s
297.15 K, 100 kPa, x1 = 0.01884	1.001 ± 0.025 mPa·s and 1.002 ± 0.025 mPa·s
298.15 K, 100 kPa, x1 = 0.04394	1.132 ± 0.009 mPa·s
298.15 K, 100 kPa, x1 = 0.05559	1.241 ± 0.01 mPa·s
298.15 K, 101.3 kPa, x1 = 0.001798	0.8994 ± 0.0085 mPa·s
298.15 K, 101.3 kPa, x1 = 0.005732	0.9164 ± 0.0086 mPa·s
298.15 K, 101.3 kPa, x1 = 0.009	0.9256 ± 0.032 mPa·s
298.15 K, 101.3 kPa, x1 = 0.01421	0.9571 ± 0.0089 mPa·s
298.15 K, 101.3 kPa, x1 = 0.02	0.9683 ± 0.034 mPa·s
298.15 K, 101.3 kPa, x1 = 0.02116	0.9928 ± 0.0092 mPa·s
298.15 K, 101.3 kPa, x1 = 0.03479	1.071 ± 0.037 mPa·s
298.15 K, 101.32 kPa, x1 = 0.09892	1.633 ± 0.16 mPa·s
298.65 K, 100 kPa, x1 = 0.07389	1.412 ± 0.011 mPa·s and 1.413 ± 0.011 mPa·s and 1.41 ± 0.011 mPa·s
300.65 K, 100 kPa, x1 = 0.08874	1.525 ± 0.012 mPa·s
301.01 K, 100 kPa, x1 = 0.09185	1.546 ± 0.011 mPa·s
301.02 K, 100 kPa, x1 = 0.09185	1.545 ± 0.011 mPa·s
301.09 K, 100 kPa, x1 = 0.06928	1.299 ± 0.0083 mPa·s
301.12 K, 100 kPa, x1 = 0.06928	1.298 ± 0.0083 mPa·s
301.15 K, 100 kPa, x1 = 0.008493	0.868 ± 0.007 mPa·s
301.25 K, 100 kPa, x1 = 0.01884	0.9164 ± 0.023 mPa·s and 0.9176 ± 0.023 mPa·s
301.59 K, 100 kPa, x1 = 0.045	1.071 ± 0.0054 mPa·s
301.67 K, 100 kPa, x1 = 0.045	1.067 ± 0.0054 mPa·s
301.68 K, 100 kPa, x1 = 0.045	1.069 ± 0.0049 mPa·s
301.71 K, 100 kPa, x1 = 0.09185	1.521 ± 0.011 mPa·s
301.87 K, 100 kPa, x1 = 0.06928	1.277 ± 0.0073 mPa·s
303.15 K, 100 kPa, x1 = 0.02582	0.92 ± 0.007 mPa·s
303.15 K, 101 kPa, x1 = 0.008924	0.8232 ± 0.019 mPa·s
303.15 K, 101 kPa, x1 = 0.01768	0.8649 ± 0.021 mPa·s
303.15 K, 101 kPa, x1 = 0.02626	0.911 ± 0.022 mPa·s
303.15 K, 101.3 kPa, x1 = 0.001	0.807 ± 0.017 mPa·s
303.15 K, 101.3 kPa, x1 = 0.009	0.8358 ± 0.029 mPa·s
303.15 K, 101.3 kPa, x1 = 0.02	0.8758 ± 0.031 mPa·s
303.15 K, 101.3 kPa, x1 = 0.03479	0.9703 ± 0.034 mPa·s
303.65 K, 100 kPa, x1 = 0.04394	1.016 ± 0.008 mPa·s and 1.019 ± 0.008 mPa·s
304.15 K, 100 kPa, x1 = 0.05559	1.096 ± 0.009 mPa·s and 1.095 ± 0.009 mPa·s
308.15 K, 100 kPa, x1 = 0.07389	1.166 ± 0.01 mPa·s
308.15 K, 101.3 kPa, x1 = 0.001798	0.7274 ± 0.0071 mPa·s
308.15 K, 101.3 kPa, x1 = 0.00359	0.7334 ± 0.0071 mPa·s
308.15 K, 101.3 kPa, x1 = 0.005732	0.7425 ± 0.0072 mPa·s
308.15 K, 101.3 kPa, x1 = 0.008927	0.7567 ± 0.0073 mPa·s
308.15 K, 101.3 kPa, x1 = 0.01421	0.7787 ± 0.0074 mPa·s
308.15 K, 101.3 kPa, x1 = 0.02116	0.81 ± 0.0076 mPa·s
308.65 K, 100 kPa, x1 = 0.07389	1.151 ± 0.01 mPa·s and 1.152 ± 0.01 mPa·s
308.66 K, 100 kPa, x1 = 0.06928	1.115 ± 0.0082 mPa·s and 1.116 ± 0.0081 mPa·s
308.68 K, 100 kPa, x1 = 0.06928	1.116 ± 0.0081 mPa·s
308.71 K, 100 kPa, x1 = 0.06928	1.113 ± 0.0083 mPa·s
308.73 K, 100 kPa, x1 = 0.06928	1.113 ± 0.0082 mPa·s
309.04 K, 100 kPa, x1 = 0.045	0.9262 ± 0.0039 mPa·s
309.11 K, 100 kPa, x1 = 0.045	0.926 ± 0.0043 mPa·s
309.26 K, 100 kPa, x1 = 0.045	0.9211 ± 0.0046 mPa·s
313.15 K, 100 kPa, x1 = 0.05559	0.926 ± 0.007 mPa·s and 0.924 ± 0.007 mPa·s
313.15 K, 101 kPa, x1 = 0.008924	0.6852 ± 0.016 mPa·s
313.15 K, 101 kPa, x1 = 0.01768	0.7209 ± 0.017 mPa·s
313.15 K, 101 kPa, x1 = 0.02626	0.759 ± 0.018 mPa·s
313.15 K, 101.3 kPa, x1 = 0.001	0.668 ± 0.014 mPa·s
313.15 K, 101.3 kPa, x1 = 0.009	0.6992 ± 0.025 mPa·s
313.15 K, 101.3 kPa, x1 = 0.02	0.7327 ± 0.026 mPa·s
313.15 K, 101.3 kPa, x1 = 0.03479	0.8126 ± 0.029 mPa·s
313.15 K, 101.32 kPa, x1 = 0.1014	1.281 ± 0.13 mPa·s
313.65 K, 100 kPa, x1 = 0.008493	0.679 ± 0.005 mPa·s
313.65 K, 100 kPa, x1 = 0.02582	0.751 ± 0.006 mPa·s and 0.75 ± 0.006 mPa·s and 0.748 ± 0.006 mPa·s
314.15 K, 100 kPa, x1 = 0.04394	0.834 ± 0.006 mPa·s
317.65 K, 100 kPa, x1 = 0.08874	1.092 ± 0.009 mPa·s and 1.096 ± 0.009 mPa·s
318.15 K, 100 kPa, x1 = 0.07389	0.974 ± 0.008 mPa·s and 0.97 ± 0.008 mPa·s and 0.973 ± 0.008 mPa·s
318.15 K, 101.3 kPa, x1 = 0.001798	0.6031 ± 0.006 mPa·s
318.15 K, 101.3 kPa, x1 = 0.00359	0.6082 ± 0.006 mPa·s
318.15 K, 101.3 kPa, x1 = 0.005732	0.6163 ± 0.0061 mPa·s
318.15 K, 101.3 kPa, x1 = 0.008927	0.6293 ± 0.0062 mPa·s
318.15 K, 101.3 kPa, x1 = 0.01421	0.6488 ± 0.0063 mPa·s
323.15 K, 101 kPa, x1 = 0.008924	0.5852 ± 0.014 mPa·s
323.15 K, 101 kPa, x1 = 0.01768	0.617 ± 0.015 mPa·s
323.15 K, 101 kPa, x1 = 0.02626	0.6491 ± 0.015 mPa·s
323.15 K, 101.3 kPa, x1 = 0.009	0.6002 ± 0.021 mPa·s
323.15 K, 101.3 kPa, x1 = 0.02	0.6302 ± 0.022 mPa·s
323.15 K, 101.3 kPa, x1 = 0.03479	0.6611 ± 0.023 mPa·s

ClC=C(Cl)Cl + O=C1CCCCC1
viscosity [mPa·s], 101.33 kPa
Conditions	x1 = 0.1122	x1 = 0.2059	x1 = 0.3057	x1 = 0.4263	x1 = 0.4957	x1 = 0.4987	x1 = 0.6177	x1 = 0.7064	x1 = 0.7889	x1 = 0.9152
298.15 K	1.589 ± 0.02	1.365 ± 0.018	1.215 ± 0.016	1.069 ± 0.014	–	0.988 ± 0.013	0.883 ± 0.011	0.803 ± 0.01	0.739 ± 0.009	0.666 ± 0.009
308.15 K	1.339 ± 0.017	1.174 ± 0.015	1.062 ± 0.014	0.944 ± 0.012	0.878 ± 0.011	–	0.789 ± 0.01	0.723 ± 0.009	0.68 ± 0.009	0.618 ± 0.008
318.15 K	1.158 ± 0.015	1.034 ± 0.013	0.933 ± 0.012	0.835 ± 0.011	0.791 ± 0.01	–	0.719 ± 0.009	0.672 ± 0.009	0.633 ± 0.008	0.582 ± 0.007
